Experiment [1] deals with T1, acetylcholinesterase from Electrophorus electricus (electric eel) (type VI-S) (Electrophorus electricus, UniProt O42275).
T1 construct: gene ache; commercial native enzyme from Sigma, type VI-S lyophilized powder
Briefly: Ellman assay, […] nm, Michaelis-Menten fit. To be noted: no inhibitor, 0.1 to 1.6 mM substrate, phosphate buffer pH 8, 37 °C. The format is biochemical. On the technique in general: In Ellman's method for cholinesterases, released thiocholine reacts with DTNB.

For experiment [2], the target named is T1, acetylcholinesterase from Electrophorus electricus (electric eel) (type VI-S). Nature of the experiment: Ellman assay, […] nm, 4PL fit. The format is biochemical.
Setting [3] is: read-out: no inhibition up to 50 μg/mL.

For orientation: Km means the substrate concentration at which the rate is half of its maximum.

Like-named read-outs stand apart in the source and are kept apart here.

T1 sequence (O42275 24-633): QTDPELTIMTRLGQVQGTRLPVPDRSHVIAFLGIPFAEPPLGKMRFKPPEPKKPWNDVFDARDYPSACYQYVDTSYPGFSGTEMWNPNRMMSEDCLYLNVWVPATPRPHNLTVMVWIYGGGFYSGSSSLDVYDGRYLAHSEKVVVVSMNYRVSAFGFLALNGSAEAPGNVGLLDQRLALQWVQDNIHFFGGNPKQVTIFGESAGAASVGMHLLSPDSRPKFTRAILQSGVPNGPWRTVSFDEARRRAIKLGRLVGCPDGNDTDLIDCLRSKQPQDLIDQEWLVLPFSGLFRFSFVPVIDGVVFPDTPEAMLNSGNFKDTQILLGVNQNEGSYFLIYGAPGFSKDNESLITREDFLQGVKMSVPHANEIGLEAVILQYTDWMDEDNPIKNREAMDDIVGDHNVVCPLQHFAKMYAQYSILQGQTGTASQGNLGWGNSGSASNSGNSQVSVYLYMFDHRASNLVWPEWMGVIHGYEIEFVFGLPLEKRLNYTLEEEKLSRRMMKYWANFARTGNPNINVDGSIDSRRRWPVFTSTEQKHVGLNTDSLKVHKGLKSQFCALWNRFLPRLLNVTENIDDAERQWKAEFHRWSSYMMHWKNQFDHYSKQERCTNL

For the compound `CC(=O)SCC[N+](C)(C)C` [Acetylthiocholine chloride], in experiment [1], the Km came out at 330 µM. In the case of `COc1ccc2cc3[n+](cc2c1OC)CCc1cc2c(cc1-3)OCO2` [berberine], in experiment [2] (read-out: IC50), the IC50 is 2.8 µM. Turning to `COc1cc(/C=C/C(=O)O)ccc1O` [ferulic acid], the IC50 in experiment [2] (setting [3]) was greater than 257 µM. Take `O=C(O)c1cc(O)c(O)c(O)c1` [gallic acid]: the IC50 in experiment [2] (read-out: IC50) came out at 46.4 µM. With `COc1cc(C(=O)O)ccc1O` [vanillic acid], in experiment [2] (setting [3]), the IC50 was greater than 297 µM.

Values taken from paper PMC6891289 (Molecules, 2019).
